# Reference: patent publication US9604980B2, “Substituted pyrimidinyl and pyridinyl-pyrrolopyridinones, process for their preparation and their use as kinase inhibitors” (NERVIANO MEDICAL SCIENCES S.r.l, priority 2012, dated 2017)
# Legend:
# [1] = system: MCF-7 breast carcinoma cells; assay: In Vitro Cell Proliferation Assay (MCF-7); assay type: cell-based; details: Homo sapiens, MCF7; 72 hours exposure, CellTiterGlo
# Experimental: (§1) In Vitro Cell Proliferation Assay
# (§2) To evaluate the antiproliferative activity of a compound of formula (I) the following human cell lines were used: A2780 ovarian and MCF-7 breast carcinoma; TT and MZ-CRC-1 medullary thyroid carcinoma, harboring a mutated RET-C634W and RET-M918T receptor respectively, LC-2/ad Non Small Cell Lung Carcinoma, expressing the CCDC6-RET fusion gene product. Exponentially growing cells were seeded and incubated at 37° C. in a humidified 5% C02 atmosphere using appropriate medium supplemented with 10% Fetal Bovine Serum. 24 hours following cell plating, scalar doses of the compounds dissolved in 0.1% DMSO were added to the medium and cells were exposed to drugs for either 72 hours (MCF-7 and A2780) or 144 hours (TT, MZ-CRC-1 and LC-2/ad), according to their different proliferation rate. At the end of treatment, cell proliferation was determined by an intracellular ATP monitoring system (CellTiterGlo—Promega), following manufacturer's instructions, and using an Envision instrument (PerkinElmer) as reader. Data obtained from compound versus vehicle treated cells were compared using Assay Explorer (Symyx Technologies Inc) software. IC50 values were calculated using sigmoidal interpolation curve fitting.
# [2] = High-Throughput Solubility Assay; assay type: physicochemical; details: for solubility at 24 h: kinetic from dmso stock, pH 7, aqueous potassium phosphate buffer, nominal 200 μM, 24 h at room temperature
# Experimental: High-Throughput Solubility Assay
# A nominal 200 μM suspensions/solutions of a compound of formula (I) in aqueous potassium phosphate buffer at pH=7 and aqueous citric acid buffer at pH=3 were prepared on a “Multiscreen-HTS”, 0.2 μm filter plate (Millipore, Billerica, Mass.). These solutions were stirred for 10 min and stored for 24 h at room temperature to pre-saturate the membrane filter and to reach a “pseudo-thermodynamic solubility”. Then the plate was put on a 500 μL 96 multiwell plate containing 200 μL of acetonitrile in each well and centrifuged at 2000 rpm for 5 minutes. The so obtained solutions were then analyzed simultaneously by HPLC-UV with standard solutions for quantification.
# [3] = system: TT medullary thyroid carcinoma cells, harboring a mutated RET-C634W receptor; assay: In Vitro Cell Proliferation Assay (TT); assay type: cell-based; details: Homo sapiens; 144 hours exposure, CellTiterGlo
# Experimental: as §1, §2
# [4] = system: A2780 ovarian carcinoma cells; assay: In Vitro Cell Proliferation Assay (A2780); assay type: cell-based; details: Homo sapiens, 72 hours exposure, CellTiterGlo
# Experimental: as §1, §2
# [5] = system: MZ-CRC-1 medullary thyroid carcinoma cells, harboring a mutated RET-M918T receptor; assay: In Vitro Cell Proliferation Assay (MZ-CRC-1); assay type: cell-based; details: Homo sapiens, 144 hours exposure, CellTiterGlo
# Experimental: as §1, §2
Structure (SMILES),IC50 [1],solubility at 24 h [2],IC50 [3],IC50 [4],IC50 [5],"solubility (in words) ([2]; neutral, physiological pH (pH 7), compared with the reference compound)"
"CCN1CCN(Cc2cc(NC(=O)Nc3cccc(C#Cc4cnc(N)nc4-c4cc5c(n4C)CCNC5=O)c3)cc(C(F)(F)F)c2)CC1 [Cmpd 29, 1-{3-[2-Amino-4-(1-methyl-4-oxo-4,5,6,7-tetrahydro-1H-pyrrolo[3,2-c]pyridin-2-yl)-pyrimidin-5-ylethynyl]-phenyl}-3-[3-(4-ethyl-piperazin-1-ylmethyl)-5-trifluoromethyl-phenyl]-urea]",9.16 µM,7.4 µM,0.085 µM,2.23 µM,–,–
"CCN1CCN(Cc2ccc(NC(=O)Nc3ccc(C#Cc4cnc(N)nc4-c4cc5c(n4C)CCNC5=O)cc3)cc2C(F)(F)F)CC1 [Cmpd 30, 1-{4-[2-Amino-4-(1-methyl-4-oxo-4,5,6,7-tetrahydro-1H-pyrrolo[3,2-c]pyridin-2-yl)-pyrimidin-5-ylethynyl]-phenyl}-3-[4-(4-ethyl-piperazin-1-ylmethyl)-3-trifluoromethyl-phenyl]-urea]",2.19 µM,1.7 µM,0.008 µM,1 µM,–,–
"CCN1CCN(Cc2ccc(NC(=O)Nc3cccc(C#Cc4cnccc4-c4cc5c(n4C)CCNC5=O)c3)cc2C(F)(F)F)CC1 [Cmpd 38, 1-[4-(4-Ethyl-piperazin-1-ylmethyl)-3-trifluoromethyl-phenyl]-3-{3-[4-(1-methyl-4-oxo-4,5,6,7-tetrahydro-1H-pyrrolo[3,2-c]pyridin-2-yl)-pyridin-3-ylethynyl]-phenyl}-urea]",5.04 µM,10.8 µM,0.038 µM,1.95 µM,–,–
"CCN1CCN(Cc2ccc(NC(=O)N3CCc4ccc(C#Cc5cnc(N)nc5-c5cc6c(n5C)CCNC6=O)cc43)cc2C(F)(F)F)CC1 [Cmpd 44, 6-[2-Amino-4-(1-methyl-4-oxo-4,5,6,7-tetrahydro-1H-pyrrolo[3,2-c]pyridin-2-yl)-pyrimidin-5-ylethynyl]-2,3-dihydro-indole-1-carboxylic acid [4-(4-ethyl-piperazin-1-ylmethyl)-3-trifluoromethyl-phenyl]-amide]",3.48 µM,4.7 µM,0.069 µM,1.72 µM,0.231 µM,–
"Cn1nc(C(C)(C)C)cc1NC(=O)Cc1cccc(C#Cc2cnc(N)nc2-c2cc3c(n2C)CCNC3=O)c1 [Cmpd 105, 2-{3-[2-Amino-4-(1-methyl-4-oxo-4,5,6,7-tetrahydro-1H-pyrrolo[3,2-c]pyridin-2-yl)-pyrimidin-5-ylethynyl]-phenyl}-N-(5-tert-butyl-2-methyl-2H-pyrazol-3-yl)-acetamide]",> 10 µM,15.3 µM,0.025 µM,2.74 µM,–,–
"CCN1CCN(Cc2ccc(NC(=O)Cc3ccc(C#Cc4cnc(N)nc4-c4cc5c(n4C)CCNC5=O)cc3)cc2C(F)(F)F)CC1 [Cmpd 123, 2-{4-[2-Amino-4-(1-methyl-4-oxo-4,5,6,7-tetrahydro-1H-pyrrolo[3,2-c]pyridin-2-yl)-pyrimidin-5-ylethynyl]-phenyl}-N-[4-(4-ethyl-piperazin-1-ylmethyl)-3-trifluoromethyl-phenyl]-acetamide]",> 10 µM,25.1 µM,0.06 µM,3.9 µM,–,–
"CN1CCCN(Cc2ccc(NC(=O)Cc3cccc(C#Cc4cnc(N)nc4-c4cc5c(n4C)CCNC5=O)c3)cc2C(F)(F)F)CC1 [Cmpd 149, 2-{3-[2-Amino-4-(1-methyl-4-oxo-4,5,6,7-tetrahydro-1H-pyrrolo[3,2-c]pyridin-2-yl)-pyrimidin-5-ylethynyl]-phenyl}-N-[4-(4-methyl-[1,4]diazepan-1-ylmethyl)-3-trifluoromethyl-phenyl]-acetamide]",3.73 µM,30.4 µM,0.013 µM,1.91 µM,–,–
"CCCN1CCN(Cc2ccc(NC(=O)Cc3cccc(C#Cc4cnc(NC)nc4-c4cc5c(n4C)CCNC5=O)c3)cc2C(F)(F)F)CC1 [Cmpd 179, 2-{3-[2-Methylamino-4-(1-methyl-4-oxo-4,5,6,7-tetrahydro-1H-pyrrolo[3,2-c]pyridin-2-yl)-pyrimidin-5-ylethynyl]-phenyl}-N-[4-(4-propyl-piperazin-1-ylmethyl)-3-trifluoromethyl-phenyl]-acetamide]",–,1.2 µM,0.017 µM,3.24 µM,0.038 µM,–
"Cn1c(-c2nc(N)ncc2C#Cc2cccc(NC(=O)Nc3ccc(C(F)(F)F)cc3)c2)cc2c1CCNC2=O [Reference cmpd, 1-{3-[2-Amino-4-(1-methyl-4-oxo-4,5,6,7-tetrahydro-1H-pyrrolo[3,2-c]pyridin-2-yl)-pyrimidin-5-ylethynyl]-phenyl}-3-(4-trifluoromethyl-phenyl)-urea, reference compound]",4.54 µM,< 1 µM,0.041 µM,2.75 µM,0.317 µM,lack of solubility

# Now those with a lower IC50 [3], led by results:
IC50 [1],solubility at 24 h [2],IC50 [3],IC50 [4],IC50 [5],"solubility (in words) ([2]; neutral, physiological pH (pH 7), compared with the reference compound)",Structure (SMILES)
2.81 µM,5.8 µM,0.007 µM,1.15 µM,–,–,"CCN1CCN(Cc2cc(NC(=O)Nc3cccc(C#Cc4cnc(N)nc4-c4cc5c(n4C)CCNC5=O)c3)ccc2C(F)(F)F)CC1 [Cmpd 22, 1-{3-[2-Amino-4-(1-methyl-4-oxo-4,5,6,7-tetrahydro-1H-pyrrolo[3,2-c]pyridin-2-yl)-pyrimidin-5-ylethynyl]-phenyl}-3-[3-(4-ethyl-piperazin-1-ylmethyl)-4-trifluoromethyl-phenyl]-urea]"
2.69 µM,9.4 µM,0.001 µM,0.704 µM,–,–,"CCN1CCN(Cc2ccc(NC(=O)Cc3cncc(C#Cc4cnc(N)nc4-c4cc5c(n4C)CCNC5=O)c3)cc2C(F)(F)F)CC1 [Cmpd 122, 2-{5-[2-Amino-4-(1-methyl-4-oxo-4,5,6,7-tetrahydro-1H-pyrrolo[3,2-c]pyridin-2-yl)-pyrimidin-5-ylethynyl]-pyridin-3-yl}-N-[4-(4-ethyl-piperazin-1-ylmethyl)-3-trifluoromethyl-phenyl]-acetamide]"
8.18 µM,26.4 µM,0.002 µM,0.105 µM,–,–,"CCN1CCN(Cc2ccc(NC(=O)Cc3ccc(C#Cc4cnc(N)nc4-c4cc5c(n4C)CCNC5=O)s3)cc2C(F)(F)F)CC1 [Cmpd 129, 2-{5-[2-Amino-4-(1-methyl-4-oxo-4,5,6,7-tetrahydro-1H-pyrrolo[3,2-c]pyridin-2-yl)-pyrimidin-5-ylethynyl]-thiophen-2-yl}-N-[4-(4-ethyl-piperazin-1-ylmethyl)-3-trifluoromethyl-phenyl]-acetamide]"
5.64 µM,40.2 µM,0.006 µM,1.93 µM,–,–,"CN(C)[C@H]1CCN(Cc2ccc(NC(=O)Cc3cccc(C#Cc4cnc(N)nc4-c4cc5c(n4C)CCNC5=O)c3)cc2C(F)(F)F)C1 [Cmpd 150, 2-{3-[2-Amino-4-(1-methyl-4-oxo-4,5,6,7-tetrahydro-1H-pyrrolo[3,2-c]pyridin-2-yl)-pyrimidin-5-ylethynyl]-phenyl}-N-[4-((S)-3-dimethylamino-pyrrolidin-1-ylmethyl)-3-trifluoromethyl-phenyl]-acetamide]"
5.62 µM,8.9 µM,0.002 µM,2.02 µM,–,–,"CCCN1CCN(Cc2ccc(NC(=O)Cc3cccc(C#Cc4cnc(N)nc4-c4cc5c(n4C)CCNC5=O)c3)cc2C(F)(F)F)CC1 [Cmpd 164, 2-{3-[2-Amino-4-(1-methyl-4-oxo-4,5,6,7-tetrahydro-1H-pyrrolo[3,2-c]pyridin-2-yl)-pyrimidin-5-ylethynyl]-phenyl}-N-[4-(4-propyl-piperazin-1-ylmethyl)-3-trifluoromethyl-phenyl]-acetamide]"
